According to patent EP0327492A1, “Herbicidally and plantgrowth regulatory active quinoline and pyrindine compounds” (CIBA-GEIGY AG, priority 1988, dated 1989):

Tests used:
Format in all cases: in vivo
Abutilon [1] = assay: Pre-emergent herbicidal action (B.2); details: 500 bis 2000 [g/ha], evaluated after 3 weeks
Description: (§1) Im Gewächshaus wird unmittelbar nach der Einsaat der Versuchspflanzen in Saatschalen die Erdoberfläche mit einer wässrigen Dispersion der Wirkstoffe, erhalten aus einem 25 %igen Emulsionskonzentrat behandelt. Es werden Konzentrationen von 2000-500 g Wirksubstanz/Hektar angewendet. Die Saatschalen werden im Gewächshaus bei 22-25° C und 50-70 % relativer Luftfeuchtigkeit gehalten und der Versuch nach 3 Wochen ausgewertet und die Resultate nach folgender Notenskala ausgewertet. • 1 Pflanze hat nicht gekeimt oder ist eingegangen • 2-3 sehr starke Schäden • 4 starke Schäden • 5 mittlere Schäden, die Pflanzen sind verkümmert • 6 Schäden, die Pflanze kann regenerieren • 7-8 leichte Schäden • 9 normales Wachstum, wie das unbehandelter Pflanzen
(§2) Boniturnoten von 1 bis 4 (insbesondere von 1 bis 3) weisen auf eine gute bis sehr gute Herbizidwirkung hin. Boniturnoten von 6 bis 9 (insbesondere 7 bis 9) weisen auf eine gute Toleranz (insbesondere bei Kulturpflanzen) hin.

Alopecurus myos. [2] = assay: Pre-emergent herbicidal action (B.2); details: 500 bis 2000 [g/ha], evaluated after 3 weeks
Description: as §1, §2

Amaranthus ret. [3] = assay: Pre-emergent herbicidal action (B.2); details: 500 bis 2000 [g/ha], evaluated after 3 weeks
Description: as §1, §2

Avena fatua [4] = assay: Pre-emergent herbicidal action (B.2); details: 500 bis 2000 [g/ha], evaluated after 3 weeks
Description: as §1, §2

Bromus tectorum [5] = assay: Pre-emergent herbicidal action (B.2); details: 500 bis 2000 [g/ha], evaluated after 3 weeks
Description: as §1, §2

Chenopodium Sp. [6] = assay: Pre-emergent herbicidal action (B.2); details: 500 bis 2000 [g/ha], evaluated after 3 weeks
Description: as §1, §2

Chrysanthe. leuc. [7] = assay: Pre-emergent herbicidal action (B.2); details: 500 bis 2000 [g/ha], evaluated after 3 weeks
Description: as §1, §2

Digitaria sang. [8] = assay: Pre-emergent herbicidal action (B.2); details: 500 bis 2000 [g/ha], evaluated after 3 weeks
Description: as §1, §2

Echinochloa crus galli [9] = assay: Pre-emergent herbicidal action (B.2); details: 500 bis 2000 [g/ha], evaluated after 3 weeks
Description: as §1, §2

Galium aparine [10] = assay: Pre-emergent herbicidal action (B.2); details: 500 bis 2000 [g/ha], evaluated after 3 weeks
Description: as §1, §2

Ipomoea = assay: Pre-emergent herbicidal action (B.2); details: 500 bis 2000 [g/ha], evaluated after 3 weeks
Description: as §1, §2

Lolium perenne [11] = assay: Pre-emergent herbicidal action (B.2); details: 500 bis 2000 [g/ha], evaluated after 3 weeks
Description: as §1, §2

Sinapis [12] = assay: Pre-emergent herbicidal action (B.2); details: 500 bis 2000 [g/ha], evaluated after 3 weeks
Description: as §1, §2

Solanum nigrum [13] = assay: Pre-emergent herbicidal action (B.2); details: 500 bis 2000 [g/ha], evaluated after 3 weeks
Description: as §1, §2

Sorghum halep. [14] = assay: Pre-emergent herbicidal action (B.2); details: 500 bis 2000 [g/ha], evaluated after 3 weeks
Description: as §1, §2

Stellaria [15] = assay: Pre-emergent herbicidal action (B.2); details: 500 bis 2000 [g/ha], evaluated after 3 weeks
Description: as §1, §2

Veronica Sp. [16] = assay: Pre-emergent herbicidal action (B.2); details: 500 bis 2000 [g/ha], evaluated after 3 weeks
Description: as §1, §2

Abutilon [17] = assay: Post-emergent herbicidal action, contact herbicide (B.3); details: 500 bis 2000 [g/ha], 15 days after treatment
Description: as §1, §2
(§3) Eine Anzahl Unkräuter, sowohl monokotyle wie dikotyle, werden nach dem Auflaufen (im 4- bis 6-Blattstadium) mit einer wässrigen Wirkstoffdispersion in einer Dosierung von 2000-500 g Wirksubstanz pro Hektar auf die Pflanzen gespritzt und diese bei 24°-26°C und 45-60 % relativer Luftfeuchtigkeit gehalten. 15 Tage nach der Behandlung wird der Versuch nach dem in Beispiel B.2. gegebenen Massstab bewertet.

Alopecurus myos. [18] = assay: as above; details: 500 bis 2000 [g/ha], 15 days after treatment
Description: as §1, §2, §3

Amaranthus ret. [19] = assay: as above; details: 500 bis 2000 [g/ha], 15 days after treatment
Description: as §1, §2, §3

Avena fatua [20] = assay: as above; details: 500 bis 2000 [g/ha], 15 days after treatment
Description: as §1, §2, §3

Bromus tectorum [21] = assay: as above; details: 500 bis 2000 [g/ha], 15 days after treatment
Description: as §1, §2, §3

Chenopodium Sp. [22] = assay: as above; details: 500 bis 2000 [g/ha], 15 days after treatment
Description: as §1, §2, §3

Chrysanthe. leuc. [23] = assay: as above; details: 500 bis 2000 [g/ha], 15 days after treatment
Description: as §1, §2, §3

Digitaria sang. [24] = assay: as above; details: 500 bis 2000 [g/ha], 15 days after treatment
Description: as §1, §2, §3

Echinochloa crus galli [25] = assay: as above; details: 500 bis 2000 [g/ha], 15 days after treatment
Description: as §1, §2, §3

Galium aparine [26] = assay: as above; details: 500 bis 2000 [g/ha], 15 days after treatment
Description: as §1, §2, §3

Lolium perenne [27] = assay: as above; details: 500 bis 2000 [g/ha], 15 days after treatment
Description: as §1, §2, §3

Sinapis [28] = assay: as above; details: 500 bis 2000 [g/ha], 15 days after treatment
Description: as §1, §2, §3

Solanum nigrum [29] = assay: as above; details: 500 bis 2000 [g/ha], 15 days after treatment
Description: as §1, §2, §3

Sorghum halep. [30] = assay: as above; details: 500 bis 2000 [g/ha], 15 days after treatment
Description: as §1, §2, §3

Stellaria [31] = assay: as above; details: 500 bis 2000 [g/ha], 15 days after treatment
Description: as §1, §2, §3

Veronica Sp. [32] = assay: as above; details: 500 bis 2000 [g/ha], 15 days after treatment
Description: as §1, §2, §3

Xanthium Sp. = assay: as above; details: 500 bis 2000 [g/ha], 15 days after treatment
Description: as §1, §2, §3

Untersaaten in Mais = assay: Pre-post selectivity: growth inhibition of undersown grasses (post-emergent) versus maize (pre-emergent)
Description: Verbindungen der Formel I zeigen in vorteilhafter Weise eine "pre-post-Selektivität" bei verscheidenen Gräsern in Maiskulturen.
Die wuchshemmende Wirkung in Gräsern ist in postemergenter Applikation stark ausgeprägt, während bei gleichzeitiger Preemergenter Applikation Maispflanzen in ihrem Wuchs nur geringfügig gehemmt werden. Derartige "pre-post-Selektivitäten" erlauben somit die Aussaat von Mais in Gräsern. Dabei soll der Zeitpunkt für die Applikation der Aktivsubstanz der Formel so gewählt werden, dass die Aktivsubstanz postemergent für die Gräser ober preemergent für den Mais angewendet wird. In den ersten Wochen ist der Zuwachs der Gräser so stark gehemmt, dass die Maispflanze sich ungehindert entfalten kann.
Eine Mischung von Gräsern (z.B. Poa, Festuca, Lolium, Bromus, Cynosurus) werden in 15 cm - Kunststofftöpfen mit steriler Landerde angesät und im Gewächshaus bei einer Tagestemperatur von 21°C und einer Nachttemperatur von 17°C angezogen. Die Beleuchtungsdauer beträgt 13,5 Stunden/Tag bei einer Lichtintensität von mind. 7000 Lux. Nach dem Ablauf werden die Pflanzen wöchentlich auf ca. 6 cm Höhe zurückgeschnitten. Ca. 42 Tage nach der Saat und 1 Tag nach dem letzten Schnitt erfolgt die Applikation mit 60-500 g Wirkstoff/ha als wässrige Spritzbrühe. Die Wasseraufwandmenge ist ca. 500 I/ha.
20 Tage nach der Behandlung wird der Versuch ausgewertet. Hierbei wird die Höhe des Neuzuwachses gemessen und in % Hemmung zum Durchschnitt der unbehandelten Kontrollen dargestellt. Die nekrotischen Schäden sind in % zur gesamten Blattfläche aufgeführt.
Mais der Sorte Blizzard G188 werden in 15 cm - Kunststofftöpfen mit steriler gesiebter Landerde angesät und im Gewächshaus bei einer Tagestemperatur von 22°C und einer Nachttemperatur von 19°C aufgestellt. Die Beleuchtungsdauer beträgt mindestens 13,5 Stunden/Tag bei einer Lichtintensität von mindestens 7000 Lux. 1 Tag nach der Saat erfolgt die Applikation mit 60-500 g Wirkstoff/ha, in der Regel 25 %ig formuliert und in wässriger Spritzbrühe. Die Wasseraufwandmenge ist ca. 200 I/ha.
16 Tage nach der Behandlung wird der Versuch ausgewertet. […]

**Q.** For `CC1CCCc2nc3c(cc21)C(=O)N1C(=O)C(C)(C(C)C)N=C31` (centres unmarked) [Verbindung 3.02, 2,7-Dimethyl-2-isopropyl-7,8,9,10-tetrahydro-3H,5H-imidazo[1',2':1,2]pyrrolo[3,4-b]chinolin-3,5-dion], which Herbizidwirkung (Abutilon [1]) is on record?
**A.** gute bis sehr gute Herbizidwirkung (Boniturnoten von 1 bis 4 (insbesondere von 1 bis 3) weisen auf eine gute bis sehr gute Herbizidwirkung hin)

**Q.** And the Herbizidwirkung (Alopecurus myos. [2])?
**A.** gute bis sehr gute Herbizidwirkung (Boniturnoten von 1 bis 4 (insbesondere von 1 bis 3) weisen auf eine gute bis sehr gute Herbizidwirkung hin)

**Q.** What about the Herbizidwirkung (Amaranthus ret. [3]) of the same molecule?
**A.** gute bis sehr gute Herbizidwirkung (Boniturnoten von 1 bis 4 (insbesondere von 1 bis 3) weisen auf eine gute bis sehr gute Herbizidwirkung hin)

**Q.** What about the Herbizidwirkung (Avena fatua [4]) of the same molecule?
**A.** gute bis sehr gute Herbizidwirkung (Boniturnoten von 1 bis 4 (insbesondere von 1 bis 3) weisen auf eine gute bis sehr gute Herbizidwirkung hin)

**Q.** And the Herbizidwirkung (Bromus tectorum [5])?
**A.** gute bis sehr gute Herbizidwirkung (Boniturnoten von 1 bis 4 (insbesondere von 1 bis 3) weisen auf eine gute bis sehr gute Herbizidwirkung hin)

**Q.** And the Herbizidwirkung (Chenopodium Sp. [6])?
**A.** gute bis sehr gute Herbizidwirkung (Boniturnoten von 1 bis 4 (insbesondere von 1 bis 3) weisen auf eine gute bis sehr gute Herbizidwirkung hin)

**Q.** And the Herbizidwirkung (Chrysanthe. leuc. [7])?
**A.** gute bis sehr gute Herbizidwirkung (Boniturnoten von 1 bis 4 (insbesondere von 1 bis 3) weisen auf eine gute bis sehr gute Herbizidwirkung hin)

**Q.** And the Herbizidwirkung (Digitaria sang. [8])?
**A.** gute bis sehr gute Herbizidwirkung (Boniturnoten von 1 bis 4 (insbesondere von 1 bis 3) weisen auf eine gute bis sehr gute Herbizidwirkung hin)

**Q.** And the Herbizidwirkung (Echinochloa crus galli [9])?
**A.** gute bis sehr gute Herbizidwirkung (Boniturnoten von 1 bis 4 (insbesondere von 1 bis 3) weisen auf eine gute bis sehr gute Herbizidwirkung hin)

**Q.** What about the Herbizidwirkung (Galium aparine [10]) of the same molecule?
**A.** gute bis sehr gute Herbizidwirkung (Boniturnoten von 1 bis 4 (insbesondere von 1 bis 3) weisen auf eine gute bis sehr gute Herbizidwirkung hin)

**Q.** And the Herbizidwirkung (Ipomoea)?
**A.** gute bis sehr gute Herbizidwirkung (Boniturnoten von 1 bis 4 (insbesondere von 1 bis 3) weisen auf eine gute bis sehr gute Herbizidwirkung hin)

**Q.** And the Herbizidwirkung (Lolium perenne [11])?
**A.** gute bis sehr gute Herbizidwirkung (Boniturnoten von 1 bis 4 (insbesondere von 1 bis 3) weisen auf eine gute bis sehr gute Herbizidwirkung hin)

**Q.** And the Herbizidwirkung (Sinapis [12])?
**A.** gute bis sehr gute Herbizidwirkung (Boniturnoten von 1 bis 4 (insbesondere von 1 bis 3) weisen auf eine gute bis sehr gute Herbizidwirkung hin)

**Q.** And the Herbizidwirkung (Solanum nigrum [13])?
**A.** gute bis sehr gute Herbizidwirkung (Boniturnoten von 1 bis 4 (insbesondere von 1 bis 3) weisen auf eine gute bis sehr gute Herbizidwirkung hin)

**Q.** And the Herbizidwirkung (Sorghum halep. [14])?
**A.** gute bis sehr gute Herbizidwirkung (Boniturnoten von 1 bis 4 (insbesondere von 1 bis 3) weisen auf eine gute bis sehr gute Herbizidwirkung hin)

**Q.** And the Herbizidwirkung (Stellaria [15])?
**A.** gute bis sehr gute Herbizidwirkung (Boniturnoten von 1 bis 4 (insbesondere von 1 bis 3) weisen auf eine gute bis sehr gute Herbizidwirkung hin)

**Q.** What about the Herbizidwirkung (Veronica Sp. [16]) of the same molecule?
**A.** gute bis sehr gute Herbizidwirkung (Boniturnoten von 1 bis 4 (insbesondere von 1 bis 3) weisen auf eine gute bis sehr gute Herbizidwirkung hin)

**Q.** And the Herbizidwirkung (Abutilon [17])?
**A.** gute bis sehr gute Herbizidwirkung (Boniturnoten von 1 bis 4 (insbesondere von 1 bis 3) weisen auf eine gute bis sehr gute Herbizidwirkung hin)

**Q.** What about the Herbizidwirkung (Alopecurus myos. [18]) of the same molecule?
**A.** gute bis sehr gute Herbizidwirkung (Boniturnoten von 1 bis 4 (insbesondere von 1 bis 3) weisen auf eine gute bis sehr gute Herbizidwirkung hin)

**Q.** What about the Herbizidwirkung (Amaranthus ret. [19]) of the same molecule?
**A.** gute bis sehr gute Herbizidwirkung (Boniturnoten von 1 bis 4 (insbesondere von 1 bis 3) weisen auf eine gute bis sehr gute Herbizidwirkung hin)

**Q.** What about the Herbizidwirkung (Avena fatua [20]) of the same molecule?
**A.** gute bis sehr gute Herbizidwirkung (Boniturnoten von 1 bis 4 (insbesondere von 1 bis 3) weisen auf eine gute bis sehr gute Herbizidwirkung hin)

**Q.** And the Herbizidwirkung (Bromus tectorum [21])?
**A.** gute bis sehr gute Herbizidwirkung (Boniturnoten von 1 bis 4 (insbesondere von 1 bis 3) weisen auf eine gute bis sehr gute Herbizidwirkung hin)

**Q.** And the Herbizidwirkung (Chenopodium Sp. [22])?
**A.** gute bis sehr gute Herbizidwirkung (Boniturnoten von 1 bis 4 (insbesondere von 1 bis 3) weisen auf eine gute bis sehr gute Herbizidwirkung hin)

**Q.** What about the Herbizidwirkung (Chrysanthe. leuc. [23]) of the same molecule?
**A.** gute bis sehr gute Herbizidwirkung (Boniturnoten von 1 bis 4 (insbesondere von 1 bis 3) weisen auf eine gute bis sehr gute Herbizidwirkung hin)

**Q.** And the Herbizidwirkung (Digitaria sang. [24])?
**A.** gute bis sehr gute Herbizidwirkung (Boniturnoten von 1 bis 4 (insbesondere von 1 bis 3) weisen auf eine gute bis sehr gute Herbizidwirkung hin)

**Q.** And the Herbizidwirkung (Echinochloa crus galli [25])?
**A.** gute bis sehr gute Herbizidwirkung (Boniturnoten von 1 bis 4 (insbesondere von 1 bis 3) weisen auf eine gute bis sehr gute Herbizidwirkung hin)

**Q.** And the Herbizidwirkung (Galium aparine [26])?
**A.** gute bis sehr gute Herbizidwirkung (Boniturnoten von 1 bis 4 (insbesondere von 1 bis 3) weisen auf eine gute bis sehr gute Herbizidwirkung hin)

**Q.** And the Herbizidwirkung (Lolium perenne [27])?
**A.** gute bis sehr gute Herbizidwirkung (Boniturnoten von 1 bis 4 (insbesondere von 1 bis 3) weisen auf eine gute bis sehr gute Herbizidwirkung hin)

**Q.** And the Herbizidwirkung (Sinapis [28])?
**A.** gute bis sehr gute Herbizidwirkung (Boniturnoten von 1 bis 4 (insbesondere von 1 bis 3) weisen auf eine gute bis sehr gute Herbizidwirkung hin)

**Q.** And the Herbizidwirkung (Solanum nigrum [29])?
**A.** gute bis sehr gute Herbizidwirkung (Boniturnoten von 1 bis 4 (insbesondere von 1 bis 3) weisen auf eine gute bis sehr gute Herbizidwirkung hin)

**Q.** And the Herbizidwirkung (Sorghum halep. [30])?
**A.** gute bis sehr gute Herbizidwirkung (Boniturnoten von 1 bis 4 (insbesondere von 1 bis 3) weisen auf eine gute bis sehr gute Herbizidwirkung hin)

**Q.** And the Herbizidwirkung (Stellaria [31])?
**A.** gute bis sehr gute Herbizidwirkung (Boniturnoten von 1 bis 4 (insbesondere von 1 bis 3) weisen auf eine gute bis sehr gute Herbizidwirkung hin)

**Q.** And the Herbizidwirkung (Veronica Sp. [32])?
**A.** gute bis sehr gute Herbizidwirkung (Boniturnoten von 1 bis 4 (insbesondere von 1 bis 3) weisen auf eine gute bis sehr gute Herbizidwirkung hin)

**Q.** What about the Herbizidwirkung (Xanthium Sp.) of the same molecule?
**A.** gute bis sehr gute Herbizidwirkung (Boniturnoten von 1 bis 4 (insbesondere von 1 bis 3) weisen auf eine gute bis sehr gute Herbizidwirkung hin)

**Q.** And the “"pre-post-Selektivität" bei Untersaaten in Mais” value (Untersaaten in Mais)?
**A.** ausgeprägter "pre-post-Selektivität"
